Assay results as given in patent publication US6991780B2, “Aluminum-zirconium antiperspirant salts with low M:CI ratio” (The Gillette Company, priority 2000, dated 2006).
Values joined by “and” are separate entries in the source; they are usually repeats but may differ in a detail not shown here. Equal entries are not always repeated.

What was measured:
[1] = tested on: volunteer panelists (axilla); test: standard hot room thermal efficacy (sweat reduction), test product on one axilla vs control on the other; assay type: in vivo, human; conditions: for antiperspirant efficacy compared with conventional enhanced antiperspirant salt (EAZCH): in words, from Table 2 data
Excerpt: The above-described enhanced efficacy salt may be tested for thermal efficacy (i.e. hot room sweat reduction) using volunteer panelists in a standard hot room protocol. The test product (vehicle plus enhanced efficacy salt) is applied to one axilla and control product (vehicle only or vehicle plus standard efficacy antiperspirant salt) is applied to the other axilla. The above-described enhanced efficacy salt typically provides a sweat reduction of about 57–62% versus about 47–52% obtained with standard efficacy salt, when suspended as an 18–19% USP active in a liquid volatile silicone carrier vehicle. Also, a freshly prepared aqueous solution of the above-described enhanced efficacy salt (20% USP active) typically provides a sweat reduction of about 63–69% versus about 48–54% obtained with standard efficacy salt in aqueous solution at the same concentration.
The above-described high peak 5 enhanced efficacy salts of Example 1 are tested for thermal efficacy (i.e. hot room sweat reduction) using volunteer panelists in a standard hot room protocol. The test product is applied to one axilla and control product is applied to the other axilla in an AvB comparison. In all cases, the test product comprises vehicle (as described below) plus high peak 5 enhanced efficacy salt (E^5AZCH). The control product comprises vehicle plus conventional enhanced efficacy (high peak 4:3) antiperspirant salt (EAZCH), except where the vehicle is a clear gel formulation, in which case a standard efficacy salt (AZCH) is used because of the instability of the conventional enhanced salt in aqueous formulations. To counteract this instability, the formulation identified as “Aqueous” below, is freshly prepared with powdered EAZCH just prior to being tested. The results are reported as the average sweat reduction (“S.R.”) gain over the control (i.e. the absolute percentage point increase in sweat reduction over the control).

[2] = HPLC aluminum peak distribution after storage (stability of enhanced state); assay type: physicochemical; conditions: aqueous solution
Protocol: Throughout the specification reference to HPLC analysis means that chromatograms are obtained as follows: Salt solutions are evaluated for aluminum polymer distribution by HPLC at a concentration of about 10% (USP) Al—Zr salt. If the solution to be analyzed is at a higher salt concentration, it is diluted with sufficient water to bring the salt concentration to about 10%. A 1.0 μL sample is injected into a Waters U6K injector, then pumped through a 4.6 mm×500 mm column packed with Nucleosil 100-5 silica with pore size of 100 angstroms and particle size of 5 μm (Keystone Scientific Inc.) using a 0.01M aqueous nitric acid solution as the eluant. The flow rate of the mobile phase is controlled at 0.5 mL/min with an LDC/Milton Roy Constametric-II metering pump (ThermoQuest Inc.). HPLC profiles are recorded and processed with a computerized system that includes the Millennium 32 Chromatography Manager software from Waters Corp. A Waters 2410 differential refractometer is used as the refractive index detector. The HPLC profiles are read from left to right (higher to lower molecular weight). Following this technique, peak 3 typically appears at a retention time of about 11.0–12.0 minutes (Kd≅0.58–0.61), peak 4 typically appears at a retention time of about 11.9–12.9 minutes (Kd≅0.62–0.72), and peak 5 typically appears at a retention time of about 13.3–14.0 minutes (Kd≅0.83–0.91). […]

[3] = aqueous solution, 20% USP active (enhanced salt freshly prepared)
[4] = suspended as 18–19% USP active in liquid volatile silicone carrier vehicle

aluminum-zirconium chlorohydrate [salt A]
antiperspirant efficacy compared with conventional enhanced antiperspirant salt (EAZCH) ([1]; listed as A): more efficacious
Avg. S.R. Gain Over Control ([1]; vehicle Roll-On (20.0% AP active), control EAZCH, listed as A): 5.8 percentage point

aluminum-zirconium chlorohydrate [salt C]
retention of efficacy on storage ([1]; after storage of the clear gel at high temperature): maintains its high efficacy
antiperspirant efficacy compared with current commercial clear gel product (standard efficacy salt) ([1]; formulated as clear gel): substantially more efficacious
antiperspirant efficacy compared with conventional enhanced antiperspirant salt (EAZCH) ([1]; listed as C): more efficacious
Avg. S.R. Gain Over Control ([1]; vehicle Aqueous (20% USP AP active), control EAZCH freshly prepared, listed as C): 4.2 percentage point
Avg. S.R. Gain Over Control ([1]; vehicle Clear Gel (23.5% AP active), control AZCH): 15.9 percentage point
Avg. S.R. Gain Over Control ([1]; vehicle Clear Gel aged 3 months at 45° C., control AZCH): 13.3 percentage point

aluminum-zirconium chlorohydrate [salt D]
antiperspirant efficacy compared with conventional enhanced antiperspirant salt (EAZCH) ([1]; listed as D): more efficacious
Avg. S.R. Gain Over Control ([1]; vehicle Aqueous (20% USP AP active), control EAZCH freshly prepared, listed as D): 5.9 percentage point and 4.6 percentage point
Avg. S.R. Gain Over Control ([1]; vehicle Roll-On (20.0% AP active), control EAZCH, listed as D): 8.7 percentage point

aluminum-zirconium chlorohydrate [salt E]
antiperspirant efficacy compared with conventional enhanced antiperspirant salt (EAZCH) ([1]; listed as E): just as efficacious
Avg. S.R. Gain Over Control ([1]; vehicle Aqueous (20% USP AP active), control EAZCH freshly prepared, listed as E): 1.3 percentage point

aluminum-zirconium chlorohydrate [salt F]
antiperspirant efficacy compared with conventional enhanced antiperspirant salt (EAZCH) ([1]; listed as F): more efficacious
Avg. S.R. Gain Over Control ([1]; vehicle Aqueous (20% USP AP active), control EAZCH freshly prepared, listed as F): 4.5 percentage point
Avg. S.R. Gain Over Control ([1]; vehicle Solid (23.5% AP active), control EAZCH, listed as F): 4.0 percentage point

aluminum-zirconium chlorohydrate [salt G]
antiperspirant efficacy compared with conventional enhanced antiperspirant salt (EAZCH) ([1]; listed as G): just as efficacious
Avg. S.R. Gain Over Control ([1]; vehicle Solid (23.5% AP active), control EAZCH, listed as G): 2.1 percentage point

aluminum-zirconium chlorohydrate [salt H]
antiperspirant efficacy compared with conventional enhanced antiperspirant salt (EAZCH) ([1]; listed as H): just as efficacious
Avg. S.R. Gain Over Control ([1]; vehicle Aqueous (20% USP AP active), control EAZCH freshly prepared, listed as H): 0.3 percentage point

aluminum-zirconium chlorohydrate [salt J]
antiperspirant efficacy compared with conventional enhanced antiperspirant salt (EAZCH) ([1]; listed as J): more efficacious
Avg. S.R. Gain Over Control ([1]; vehicle Aqueous (20% USP AP active), control EAZCH freshly prepared, listed as J): 4.3 percentage point

aluminum-zirconium chlorohydrate [salt K]
antiperspirant efficacy compared with conventional enhanced antiperspirant salt (EAZCH) ([1]; listed as K): just as efficacious
Avg. S.R. Gain Over Control ([1]; vehicle Aqueous (20% USP AP active), control EAZCH freshly prepared, listed as K): 1.7 percentage point

aluminum-zirconium chlorohydrate-gly [AZCH, reference compound]
sweat reduction [1, 3]: 48–54%
sweat reduction [1, 4]: 47–52%

aluminum-zirconium octachlorohydrate-gly [salt B]
antiperspirant efficacy compared with conventional enhanced antiperspirant salt (EAZCH) [1]: more efficacious
retention of efficacy on storage ([1]; stored as concentrated aqueous solution for 1.5 years): retains its superior efficacy
Avg. S.R. Gain Over Control ([1]; vehicle Aqueous, aged 1.5 years, control EAZCH): 7.0 percentage point

aluminum-zirconium tetrachlorohydrate [EAZCH, reference compound]
stability of enhanced state (peak 4:3 ratio) in aqueous form [2]: peak 4:3 ratio deteriorates very quickly
sweat reduction [1, 3]: 63–69%
sweat reduction [1, 4]: 57–62%
